Test results published in patent US20050191359A1, “Water soluble nanoparticles and method for their production” (SoluBest Ltd., priority 2001, published 2005).

What was measured:
[1] = Solubility of erythromycin alone and as nano-dispersion with modified starch; assay type: physicochemical
Micrococcus luteus = experiment: In vitro microbiological activity, agar petri-dish filter-disc test (zones of bacteriostatic activity versus time); assay type: cell-based; conditions: identical concentrations of drug; observed until 216 hours post-application
Protocol: The microbiological activity of various concentrations of water-soluble complexes of clarithromycin prepared in Example 3 was tested on the bacterium Micrococcus luteus, which is sensitive to macrolide antibiotics, and compared to uncomplexed commercial clarithromycin using well-known agar-filled petri-dish tests. Small filter paper cut discs were impregnated with two different solution concentrations (100 or 1,000 μ/ml) of the tested antibiotics. Diameters of the zones pf bacteriostatic activity were measured versus time. […] It was also observed that the difference in microbiological activity for complexed clarithromycin having concentration differences of an order of magnitude between them is vastly greater than the corresponding differences noted with uncomplexed clarithromycin.

[2] = rats, same oral dose of 150 mg/kg; cited from earlier work

CC[C@H]1OC(=O)[C@H](C)[C@@H](O[C@H]2C[C@@](C)(OC)[C@@H](O)[C@H](C)O2)[C@H](C)[C@@H](O[C@@H]2O[C@H](C)C[C@H](N(C)C)[C@H]2O)[C@](C)(O)C[C@@H](C)C(=O)[C@H](C)[C@@H](O)[C@]1(C)O [Erythromycin, erythromycin]
solubility of the original drug in water [1]: 0.2%

CC[C@H]1OC(=O)[C@H](C)[C@@H](O[C@H]2C[C@@](C)(OC)[C@@H](O)[C@H](C)O2)[C@H](C)[C@@H](O[C@@H]2O[C@H](C)C[C@H](N(C)C)[C@H]2O)[C@](C)(OC)C[C@@H](C)C(=O)[C@H](C)[C@@H](O)[C@]1(C)O [commercial clarithromycin, clarithromycin]
time until which antibacterial activity continued (Micrococcus luteus): approximately 48 hours
AUC0-24 hours, published data [2]: 32540 ng·h/mL
